Common to all, as to assay: Kinase panel enzymatic inhibition assay (Nanosyn)
Format in all cases: biochemical
Common to all, as to conditions: compound 5 μM; ATP at Km; 30-minute pre-incubation

The target of one experiment is T1, ARAF (Homo sapiens, UniProt P10398).
T1 construct: purchased Nanosyn (contract screening)
T1 sequence (P10398 1-606): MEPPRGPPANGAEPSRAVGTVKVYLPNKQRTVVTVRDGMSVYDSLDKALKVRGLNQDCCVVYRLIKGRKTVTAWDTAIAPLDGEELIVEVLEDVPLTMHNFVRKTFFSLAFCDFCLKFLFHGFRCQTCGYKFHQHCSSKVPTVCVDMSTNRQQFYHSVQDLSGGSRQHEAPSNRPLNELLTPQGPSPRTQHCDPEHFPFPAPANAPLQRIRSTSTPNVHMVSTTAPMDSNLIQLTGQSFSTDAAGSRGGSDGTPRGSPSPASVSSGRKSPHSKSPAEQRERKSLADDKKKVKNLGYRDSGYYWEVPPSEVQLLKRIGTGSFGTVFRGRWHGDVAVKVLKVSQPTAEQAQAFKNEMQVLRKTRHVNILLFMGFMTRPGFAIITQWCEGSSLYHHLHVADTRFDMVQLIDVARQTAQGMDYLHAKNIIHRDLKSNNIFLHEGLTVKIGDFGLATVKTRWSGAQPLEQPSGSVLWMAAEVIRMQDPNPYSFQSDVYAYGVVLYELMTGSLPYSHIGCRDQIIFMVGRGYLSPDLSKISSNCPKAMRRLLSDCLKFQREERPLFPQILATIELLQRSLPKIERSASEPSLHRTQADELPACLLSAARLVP
The essentials:
(§1)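 Single-point screen: compound 5 μM, ATP at Km per kinase, 30 min pre-incubation. Readout by mobility shift (Caliper LabChip), ADP detection or TR-fluorescence. Reported as % inhibition or IC50.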

For the next experiment, the target named is T2, Abl2 (Homo sapiens, UniProt P42684).
T2 construct: purchased Nanosyn (contract screening)
T2 sequence (P42684 whole entry): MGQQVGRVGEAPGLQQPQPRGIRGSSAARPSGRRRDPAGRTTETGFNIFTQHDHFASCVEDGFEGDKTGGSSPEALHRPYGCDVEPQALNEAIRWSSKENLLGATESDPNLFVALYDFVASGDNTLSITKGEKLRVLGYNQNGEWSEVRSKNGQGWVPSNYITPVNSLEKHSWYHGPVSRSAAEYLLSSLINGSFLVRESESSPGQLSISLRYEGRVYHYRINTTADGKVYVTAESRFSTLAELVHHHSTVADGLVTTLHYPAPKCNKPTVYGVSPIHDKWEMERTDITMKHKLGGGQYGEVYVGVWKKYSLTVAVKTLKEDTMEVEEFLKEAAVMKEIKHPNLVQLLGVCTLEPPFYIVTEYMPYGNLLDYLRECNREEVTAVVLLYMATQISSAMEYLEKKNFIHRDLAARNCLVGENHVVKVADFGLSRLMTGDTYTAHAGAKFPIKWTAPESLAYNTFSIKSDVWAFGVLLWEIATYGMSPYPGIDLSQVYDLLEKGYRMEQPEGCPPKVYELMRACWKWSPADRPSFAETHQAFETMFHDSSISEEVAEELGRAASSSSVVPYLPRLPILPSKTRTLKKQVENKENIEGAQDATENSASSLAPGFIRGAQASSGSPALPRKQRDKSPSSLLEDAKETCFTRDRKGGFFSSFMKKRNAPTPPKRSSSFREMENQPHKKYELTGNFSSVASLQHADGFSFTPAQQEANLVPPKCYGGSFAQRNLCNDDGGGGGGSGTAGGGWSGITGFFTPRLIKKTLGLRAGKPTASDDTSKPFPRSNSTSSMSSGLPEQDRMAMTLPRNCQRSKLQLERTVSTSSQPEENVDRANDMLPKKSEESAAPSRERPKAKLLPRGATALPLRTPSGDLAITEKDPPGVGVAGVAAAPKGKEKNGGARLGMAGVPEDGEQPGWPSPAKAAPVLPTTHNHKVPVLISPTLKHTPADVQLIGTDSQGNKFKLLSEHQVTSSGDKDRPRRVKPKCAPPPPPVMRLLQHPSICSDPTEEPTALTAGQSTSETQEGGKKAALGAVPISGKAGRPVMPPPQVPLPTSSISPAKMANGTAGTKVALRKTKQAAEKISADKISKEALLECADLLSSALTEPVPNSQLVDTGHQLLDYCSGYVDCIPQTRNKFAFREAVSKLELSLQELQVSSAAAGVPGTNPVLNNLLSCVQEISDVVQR
The method in brief:
as §1

The next experiment concerns the target T3, BRAF (Homo sapiens, UniProt P15056).
T3 construct: purchased Nanosyn (contract screening)
The essentials:
as §1

In the next experiment the target is T4, BRK (Homo sapiens, UniProt Q13882).
T4 construct: purchased Nanosyn (contract screening)
T4 sequence (Q13882 whole entry): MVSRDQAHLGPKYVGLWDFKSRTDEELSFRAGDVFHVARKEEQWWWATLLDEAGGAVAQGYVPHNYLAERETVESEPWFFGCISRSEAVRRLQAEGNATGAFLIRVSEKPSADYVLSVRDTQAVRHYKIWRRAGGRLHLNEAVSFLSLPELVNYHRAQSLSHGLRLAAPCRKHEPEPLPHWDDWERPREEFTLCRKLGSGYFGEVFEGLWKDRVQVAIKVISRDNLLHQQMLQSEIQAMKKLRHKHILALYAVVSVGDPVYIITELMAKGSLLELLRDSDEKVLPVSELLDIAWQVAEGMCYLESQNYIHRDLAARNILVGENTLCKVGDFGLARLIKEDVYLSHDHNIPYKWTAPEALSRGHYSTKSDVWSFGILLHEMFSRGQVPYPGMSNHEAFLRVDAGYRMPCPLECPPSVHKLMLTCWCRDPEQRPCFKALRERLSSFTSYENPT
The essentials:
as §1

The target in the next experiment is T5, CLK4 (Homo sapiens, UniProt Q9HAZ1).
T5 construct: purchased Nanosyn (contract screening)
The method in brief: as §1

The next experiment addresses T6, CSK (Homo sapiens, UniProt P41240).
T6 construct: purchased Nanosyn (contract screening)
The essentials: as §1

The next experiment deals with T7, DDR1 (Homo sapiens, UniProt Q08345).
T7 construct: purchased Nanosyn (contract screening)
The method in brief: as §1

In the next experiment the target is T8, FGR (Homo sapiens, UniProt P09769).
T8 construct: purchased Nanosyn (contract screening)
T8 sequence (P09769 whole entry): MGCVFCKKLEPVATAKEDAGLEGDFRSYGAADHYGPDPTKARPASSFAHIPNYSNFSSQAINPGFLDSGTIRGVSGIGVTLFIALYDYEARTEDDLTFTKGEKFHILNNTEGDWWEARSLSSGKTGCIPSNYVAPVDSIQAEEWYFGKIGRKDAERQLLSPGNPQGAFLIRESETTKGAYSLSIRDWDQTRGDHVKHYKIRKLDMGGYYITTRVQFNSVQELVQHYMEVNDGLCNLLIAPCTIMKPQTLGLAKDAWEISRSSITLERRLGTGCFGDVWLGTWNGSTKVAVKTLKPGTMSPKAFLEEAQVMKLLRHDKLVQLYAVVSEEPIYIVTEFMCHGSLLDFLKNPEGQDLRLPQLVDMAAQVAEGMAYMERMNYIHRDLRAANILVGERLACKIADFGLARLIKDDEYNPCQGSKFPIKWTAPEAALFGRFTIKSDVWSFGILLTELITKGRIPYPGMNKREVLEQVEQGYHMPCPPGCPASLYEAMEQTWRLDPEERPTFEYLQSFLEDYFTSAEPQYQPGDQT
The essentials: as §1

The next experiment deals with T9, HCK (Homo sapiens, UniProt P08631).
T9 construct: purchased Nanosyn (contract screening)
T9 sequence (P08631 whole entry): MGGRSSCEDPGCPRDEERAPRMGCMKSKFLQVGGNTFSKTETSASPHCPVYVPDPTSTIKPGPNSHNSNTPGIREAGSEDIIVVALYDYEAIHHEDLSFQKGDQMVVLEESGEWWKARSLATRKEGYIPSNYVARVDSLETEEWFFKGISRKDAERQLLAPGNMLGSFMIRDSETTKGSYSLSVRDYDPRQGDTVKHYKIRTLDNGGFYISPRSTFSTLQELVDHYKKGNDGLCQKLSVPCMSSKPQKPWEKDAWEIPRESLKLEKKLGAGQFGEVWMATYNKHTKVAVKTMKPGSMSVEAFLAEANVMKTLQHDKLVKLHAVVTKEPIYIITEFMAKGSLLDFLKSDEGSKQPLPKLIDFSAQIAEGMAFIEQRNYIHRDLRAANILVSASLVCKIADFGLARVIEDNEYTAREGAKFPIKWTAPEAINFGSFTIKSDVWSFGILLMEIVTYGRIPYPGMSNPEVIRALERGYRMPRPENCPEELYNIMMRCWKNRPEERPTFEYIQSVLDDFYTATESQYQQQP
The method in brief:
as §1

The target in a further experiment is T10, MAP4K2 (Homo sapiens, UniProt Q12851).
T10 construct: purchased Nanosyn (contract screening)
T10 sequence (Q12851 1-820): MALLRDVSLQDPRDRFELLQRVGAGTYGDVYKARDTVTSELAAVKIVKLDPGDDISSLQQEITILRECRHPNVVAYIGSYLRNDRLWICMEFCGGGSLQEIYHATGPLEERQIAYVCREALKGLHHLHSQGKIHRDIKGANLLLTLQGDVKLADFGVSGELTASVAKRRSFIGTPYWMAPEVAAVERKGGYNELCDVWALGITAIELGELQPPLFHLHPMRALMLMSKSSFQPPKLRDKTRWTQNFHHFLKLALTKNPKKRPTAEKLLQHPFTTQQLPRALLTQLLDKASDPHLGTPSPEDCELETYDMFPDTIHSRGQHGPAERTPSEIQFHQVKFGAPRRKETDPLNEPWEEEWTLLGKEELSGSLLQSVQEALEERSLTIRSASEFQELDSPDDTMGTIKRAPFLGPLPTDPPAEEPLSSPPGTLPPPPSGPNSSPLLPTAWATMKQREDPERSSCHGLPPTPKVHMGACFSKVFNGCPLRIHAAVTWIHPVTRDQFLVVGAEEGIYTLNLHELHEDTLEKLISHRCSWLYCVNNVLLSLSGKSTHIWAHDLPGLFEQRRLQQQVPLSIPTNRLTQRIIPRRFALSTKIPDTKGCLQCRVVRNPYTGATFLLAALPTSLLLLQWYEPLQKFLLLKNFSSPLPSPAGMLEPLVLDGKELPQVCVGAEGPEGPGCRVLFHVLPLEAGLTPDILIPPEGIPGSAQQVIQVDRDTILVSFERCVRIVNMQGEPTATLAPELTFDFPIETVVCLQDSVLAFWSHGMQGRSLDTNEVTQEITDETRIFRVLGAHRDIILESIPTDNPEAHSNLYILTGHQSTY
The method in brief: as §1

The target of the next experiment is T11, MNK2 (Homo sapiens, UniProt Q9HBH9).
T11 construct: Nanosyn (contract laboratory that ran the panel)
T11 sequence (Q9HBH9 whole entry): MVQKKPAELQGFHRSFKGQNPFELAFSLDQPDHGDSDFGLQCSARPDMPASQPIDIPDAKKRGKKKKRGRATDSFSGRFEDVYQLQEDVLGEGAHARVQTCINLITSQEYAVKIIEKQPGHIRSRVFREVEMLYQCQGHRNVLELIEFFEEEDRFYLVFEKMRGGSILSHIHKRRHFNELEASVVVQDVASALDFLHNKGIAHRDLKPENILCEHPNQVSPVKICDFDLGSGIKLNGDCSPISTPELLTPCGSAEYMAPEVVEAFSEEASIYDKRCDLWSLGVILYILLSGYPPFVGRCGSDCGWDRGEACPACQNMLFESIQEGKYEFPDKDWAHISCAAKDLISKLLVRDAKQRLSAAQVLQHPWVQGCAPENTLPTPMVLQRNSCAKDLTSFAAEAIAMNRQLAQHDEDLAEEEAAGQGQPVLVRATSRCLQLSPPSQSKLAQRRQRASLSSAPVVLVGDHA
The essentials:
as §1

For the next experiment, the target named is T12, PKCb1 (Homo sapiens, UniProt P05771).
T12 construct: Nanosyn (contract laboratory that ran the panel)
T12 sequence (P05771 whole entry): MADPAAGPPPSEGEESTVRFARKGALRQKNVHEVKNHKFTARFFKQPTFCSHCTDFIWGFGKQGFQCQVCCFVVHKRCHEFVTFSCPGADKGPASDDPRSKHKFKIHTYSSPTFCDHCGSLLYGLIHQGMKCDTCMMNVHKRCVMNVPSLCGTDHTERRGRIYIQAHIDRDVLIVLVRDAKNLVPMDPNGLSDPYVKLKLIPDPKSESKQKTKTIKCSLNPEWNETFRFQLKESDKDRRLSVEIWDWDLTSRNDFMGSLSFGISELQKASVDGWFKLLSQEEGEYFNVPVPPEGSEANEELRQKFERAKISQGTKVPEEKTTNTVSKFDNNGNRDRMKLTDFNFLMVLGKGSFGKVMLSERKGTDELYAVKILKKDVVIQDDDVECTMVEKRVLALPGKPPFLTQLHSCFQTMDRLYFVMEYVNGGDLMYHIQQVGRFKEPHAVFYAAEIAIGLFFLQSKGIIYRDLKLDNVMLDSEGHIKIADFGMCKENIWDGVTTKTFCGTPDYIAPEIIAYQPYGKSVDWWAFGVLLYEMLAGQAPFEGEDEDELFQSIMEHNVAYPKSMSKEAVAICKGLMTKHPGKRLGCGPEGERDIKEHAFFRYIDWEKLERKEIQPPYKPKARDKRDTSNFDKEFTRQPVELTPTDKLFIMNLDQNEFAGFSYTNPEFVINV
The essentials: as §1

The target in the next experiment is T13, YES (Homo sapiens, UniProt P07947).
T13 construct: Nanosyn (contract laboratory that ran the panel)
T13 sequence (P07947 whole entry): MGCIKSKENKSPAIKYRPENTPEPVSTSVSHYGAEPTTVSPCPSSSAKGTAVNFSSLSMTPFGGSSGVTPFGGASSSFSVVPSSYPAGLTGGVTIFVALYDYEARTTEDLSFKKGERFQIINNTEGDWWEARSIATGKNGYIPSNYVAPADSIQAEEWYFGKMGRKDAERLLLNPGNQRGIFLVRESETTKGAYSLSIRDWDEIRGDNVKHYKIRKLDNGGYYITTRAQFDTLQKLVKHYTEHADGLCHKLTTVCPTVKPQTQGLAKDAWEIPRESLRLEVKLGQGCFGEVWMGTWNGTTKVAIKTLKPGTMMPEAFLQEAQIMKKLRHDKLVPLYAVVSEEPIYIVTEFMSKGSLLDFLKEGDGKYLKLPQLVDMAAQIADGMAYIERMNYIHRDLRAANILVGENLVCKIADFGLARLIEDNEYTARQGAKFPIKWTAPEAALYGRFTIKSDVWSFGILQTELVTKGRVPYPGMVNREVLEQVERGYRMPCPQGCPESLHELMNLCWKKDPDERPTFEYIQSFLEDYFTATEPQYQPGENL
The method in brief:
as §1

A further experiment has as its target T14, p38b (Homo sapiens, UniProt Q15759).
T14 construct: Nanosyn (contract laboratory that ran the panel)
The essentials: as §1

T6 sequence (P41240 whole entry): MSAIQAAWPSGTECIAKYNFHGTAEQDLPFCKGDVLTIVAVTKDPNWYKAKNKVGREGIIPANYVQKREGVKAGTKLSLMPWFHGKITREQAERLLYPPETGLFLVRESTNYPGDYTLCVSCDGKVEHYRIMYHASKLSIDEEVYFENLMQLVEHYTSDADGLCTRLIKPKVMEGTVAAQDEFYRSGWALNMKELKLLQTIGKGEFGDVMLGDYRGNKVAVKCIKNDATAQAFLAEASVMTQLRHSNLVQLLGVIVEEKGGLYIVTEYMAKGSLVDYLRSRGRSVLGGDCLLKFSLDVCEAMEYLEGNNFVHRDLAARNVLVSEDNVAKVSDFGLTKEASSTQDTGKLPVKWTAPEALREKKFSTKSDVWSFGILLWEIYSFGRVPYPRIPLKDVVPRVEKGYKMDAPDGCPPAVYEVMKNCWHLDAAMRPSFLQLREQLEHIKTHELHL

For the molecule `Cc1ccc(NC(=O)c2cc([S+](C)[O-])n(-c3ccc(F)cc3)n2)cc1-c1cc(OCCO)nc(N2CCOCC2)c1` (centres unmarked) [Ex10, 1-(4-fluorophenyl)-N-(3-(2-(2-hydroxyethoxy)-6-morpholinopyridin-4-yl)-4-methylphenyl)-5-(methylsulfinyl)-1H-pyrazole-3-carboxamide], the inhibition at 5 µM is no less than 95% against ARAF; less than 79% against Abl2; no less than 95% on BRAF; less than 79% against BRK; less than 79% against CLK4; less than 79% against CSK. Further, the inhibition at 5 µM against DDR1 was no less than 95%; on FGR, less than 79%; against HCK it was less than 79%; at MAP4K2, less than 79%; on MNK2 it was less than 79%; on PKCb1, less than 79%. Also, the inhibition at 5 µM on YES and on p38b was less than 79% throughout.
On to `Cc1ccc(NC(=O)c2cc([S+](C)[O-])n(-c3ccc(F)cc3)n2)cc1C#Cc1cnc2cccnn12` (centres unmarked) [Ex6, 1-(4-fluorophenyl)-N-(3-(imidazo[1,2-b]pyridazin-3-ylethynyl)-4-methylphenyl)-5-(methylsulfinyl)-1H-pyrazole-3-carboxamide], for which the inhibition at 5 µM was less than 79% on ARAF; no less than 95% against Abl2; no less than 95% against BRAF; 80 to 89% against BRK; less than 79% against CLK4; 80 to 89% on CSK. Further, the inhibition at 5 µM was no less than 95% on DDR1; 80 to 89% on FGR; no less than 95% against HCK; less than 79% against MAP4K2; less than 79% on MNK2; less than 79% at PKCb1. Also, the inhibition at 5 µM against YES and against p38b was 80 to 89% throughout.
As for `Cc1ccc(NC(=O)c2cc(S(C)(=O)=O)n(-c3ccc(F)cc3)n2)cc1Nc1ccc2ncn(C)c(=O)c2c1` [Ex4, 1-(4-fluorophenyl)-N-(4-methyl-3-((3-methyl-4-oxo-3,4-dihydroquinazolin-6-yl)amino)phenyl)-5-(methylsulfonyl)-1H-pyrazole-3-carboxamide], the inhibition at 5 µM is no less than 95% on ARAF; less than 79% at Abl2; no less than 95% against BRAF; less than 79% against BRK; less than 79% against CLK4; less than 79% against CSK. The inhibition at 5 µM against DDR1, against FGR, against HCK, against MAP4K2, against MNK2 and against PKCb1 was less than 79% each time. The inhibition at 5 µM against YES and against p38b was less than 79% throughout.
As to `CCOC(=O)Nc1cn2nc(Nc3cc(NC(=O)c4cc([S+](C)[O-])n(-c5ccc(F)cc5)n4)ccc3C)ccc2n1` (centres unmarked) [Ex18, ethyl (6-((5-(1-(4-fluorophenyl)-5-(methylsulfinyl)-1H-pyrazole-3-carboxamido)-2-methylphenyl)amino)imidazo[1,2-b]pyridazin-2-yl)carbamate], the inhibition at 5 µM against ARAF is less than 79%; on Abl2, 80 to 89%; on BRAF, 90 to 94%; against BRK it was less than 79%; against CLK4, less than 79%; against CSK, less than 79%. Besides, the inhibition at 5 µM was no less than 95% at DDR1; 80 to 89% on FGR; no less than 95% at HCK; less than 79% on MAP4K2; less than 79% against MNK2; less than 79% against PKCb1. For the same molecule, the inhibition at 5 µM on YES fell in the range of 90 to 94%; against p38b it was 80 to 89%.
Turning to `Cc1ccc(NC(=O)c2cc([S+](C)[O-])n(-c3ccc(F)cc3)n2)cc1-c1cc(N2CCOCC2)c(=O)n(C)c1` (centres unmarked) [Ex11, 1-(4-fluorophenyl)-N-(4-methyl-3-(1-methyl-5-morpholino-6-oxo-1,6-dihydropyridin-3-yl)phenyl)-5-(methylsulfinyl)-1H-pyrazole-3-carboxamide], the inhibition at 5 µM against ARAF was no less than 95%; on Abl2, less than 79%; on BRAF, no less than 95%; on BRK, less than 79%; against CLK4, less than 79%; against CSK, less than 79%. Also, the inhibition at 5 µM against DDR1, against FGR, against HCK, against MAP4K2, against MNK2 and on PKCb1 was less than 79% each time. Besides, the inhibition at 5 µM against YES and on p38b was less than 79% each time.
Regarding `Cc1ccc(NC(=O)c2cc(S(C)(=O)=O)n(-c3ccc(F)cc3)n2)cc1Nc1nccc(-c2cccnc2N)n1` [Ex13, N-(3-((4-(2-aminopyridin-3-yl)pyrimidin-2-yl)amino)-4-methylphenyl)-1-(4-fluorophenyl)-5-(methylsulfonyl)-1H-pyrazole-3-carboxamide], the inhibition at 5 µM against ARAF is no less than 95%; against Abl2, no less than 95%; against BRAF, no less than 95%; on BRK, less than 79%; on CLK4, less than 79%; against CSK, less than 79%. In addition, the inhibition at 5 µM at DDR1 was no less than 95%; against FGR, less than 79%; against HCK, less than 79%; against MAP4K2, less than 79%; at MNK2, less than 79%; against PKCb1 it was less than 79%. Further, the inhibition at 5 µM at YES and against p38b was less than 79% each time.
Take `Cc1ccc(NC(=O)c2cc([S+](C)[O-])n(-c3ccc(F)cc3)n2)cc1Nc1ccc2ncn(C)c(=O)c2c1` (centres unmarked) [Ex5, 1-(4-fluorophenyl)-N-(4-methyl-3-((3-methyl-4-oxo-3,4-dihydroquinazolin-6-yl)amino)phenyl)-5-(methylsulfinyl)-1H-pyrazole-3-carboxamide]: the inhibition at 5 µM on ARAF was no less than 95%; on Abl2, less than 79%; at BRAF, no less than 95%; against BRK it was less than 79%; against CLK4, less than 79%; against CSK, less than 79%. In addition, the inhibition at 5 µM against DDR1 is 90 to 94%; against FGR, less than 79%; on HCK it was less than 79%; against MAP4K2, less than 79%; against MNK2 it was less than 79%; at PKCb1, less than 79%. Besides, the inhibition at 5 µM on YES was less than 79%; at p38b, 80 to 89%.

A word on the inhibition: it is the drop in the measured response relative to a control, in per cent. Read a high inhibition as a strong effect.
